The source of these data is US20110223202A1, “CATIONIC CORE-SHELL PEPTIDE NONOPARTICLES” (priority 2007, published 2011).

In brackets after ≈: the same amount, converted by molar mass. Like-named read-outs stand apart in the source and are kept apart here. No end group written: not given here.

Format in all cases: cell-based
One data set relates to Bacillus subtilis. Nature of the data set: microbe, parasite or virus in culture. Particulars: read-out: MIC against Bacillus subtilis. The protocol: Bacillus subtilis, Candida albicans and Stachybotrys chartarum (ATCC) were grown in tryptic soy broth at 37° C., yeast mold broth at 24° C. and tryptic soy broth at 26° C., respectively. The MICs of the peptides or peptide nanoparticles were measured using a broth microdilution method. Briefly, 50 μL of peptide and peptide nanoparticle solutions with a concentration of 7.1 to 142 μM was placed into each well of 96-well plates. 50 μL of microorganism solution was added to each well to give an optical density reading of 0.1 to 0.2 at 600 nm. […] Broth containing cells alone was used as control. The tests were repeated three times.

The test system of another data set is Candida albicans. The conditions noted are these: broth microdilution, no growth observed. As to the method: (§1) Bacillus subtilis, Candida albicans and Stachybotrys chartarum (ATCC) were grown in tryptic soy broth at 37° C., yeast mold broth at 24° C. and tryptic soy broth at 26° C., respectively. The MICs of the peptides or peptide nanoparticles were measured using a broth microdilution method. Briefly, 50 μL of peptide and peptide nanoparticle solutions with a concentration of 7.1 to 142 μM was placed into each well of 96-well plates. 50 μL of microorganism solution was added to each well to give an optical density reading of 0.1 to 0.2 at 600 nm. The cell cultures were then incubated for 15, 12/16 and 170 hours for Bacillus subtilis, Candida albicans and Stachybotrys chartarum respectively, and the MIC was taken at the concentration at which no growth was observed. Broth containing cells alone was used as control. The tests were repeated three times.

A further data set relates to rat red blood cells. Nature of the data set: Hemolysis assay. The conditions noted are these: at concentrations lower than its MIC. The protocol:
Fresh rat red blood cells were washed with PBS for three times. 100 μL of red blood cells suspended in PBS (4% in volume) was placed in each well of 96-well plates and 100 μL of peptide nanoparticle or amphotericin B solution was added to each well. The plates were incubated for one hour at 37° C. The cell suspensions were taken out and centrifuged at 1000 g for 5 minutes. Aliquots (100 μL) of supernatant were transferred to 96-well plates, and hemoglobin release was monitored at 576 nm using a microplate reader (Bio-Teck Instruments, Inc). Percentage of hemolysis was calculated using the following formula: Hemolysis (%)=[(O.D.576 nm in the nanoparticle solution−O.D.576 nm in PBS)/(O.D.576 nm in 0.1% Triton X-100−O.D.576 nm in PBS)]×100. In vivo studies.

In another data set the test system is Stachybotrys chartarum. Nature of the data set: microbe, parasite or virus in culture. The conditions noted are these: broth microdilution, no growth observed, read-out: MIC against Stachybotrys chartarum. The protocol:
as §1
Background: Dilution methods test growth across graded concentrations, often in twofold steps.

Where [1] appears, read: broth microdilution, no growth observed.

`C[C@H]1c2cccc(O)c2C(=O)C2=C(O)[C@]3(O)C(=O)C(C(N)=O)=C(O)[C@@H](N(C)C)[C@@H]3[C@@H](O)[C@@H]21` [doxycycline]: in the data set with Bacillus subtilis (Bacillus subtilis, FIG. 12, 16 hours of incubation), the MIC came to 13.5 µM (≈ 6 µg/mL). On to GGGRRRRRRYGRKKRRQRRR-NH2 [G3R6TAT], for which the “MIC against Candida albicans” value with Candida albicans is 75.0 µM. For the same compound, the MIC with Bacillus subtilis (setting [1]) is on record as 75.0 µM. Consider `N=C(N)NCCC[C@H](NC(=O)[C@H](CCCNC(=N)N)NC(=O)[C@H](CCCNC(=N)N)NC(=O)[C@H](CCCNC(=N)N)NC(=O)[C@H](CCCNC(=N)N)NC(=O)[C@H](CCCNC(=N)N)NC(=O)[C@H](CCCNC(=N)N)NC(=O)[C@H](CCCNC(=N)N)NC(=O)[C@H](CCCNC(=N)N)NC(=O)[C@H](CCCNC(=N)N)NC(=O)[C@H](CCCNC(=N)N)NC(=O)[C@H](CCCNC(=N)N)NC(=O)CNC(=O)CNC(=O)CN)C(N)=O` [G3R12], for which the “MIC against Candida albicans” value in the data set on Candida albicans was 242.0 µM (≈ 499 µg/mL). For the same compound, the MIC with Bacillus subtilis (setting [1]) is 242.0 µM (≈ 499 µg/mL). Consider `CC1(C)S[C@@H]2[C@H](NC(=O)Cc3ccccc3)C(=O)N2[C@H]1C(=O)O` [penicillin G], for which, in the data set with Bacillus subtilis (FIG. 12, 16 hours of incubation), the MIC came to 1074 µM (≈ 359 µg/mL).

As to “GGGRRRRRR-NH2 (C-terminus assumed) [G3R6]”, the “MIC against Candida albicans” value in the data set with Candida albicans is more than 444.4 µM. Moreover, in the data set on Bacillus subtilis (setting [1]), the MIC was more than 444.4 µM. For `C[C@@H]1[C@H](O)[C@@H](C)/C=C/C=C/C=C/C=C/C=C/C=C/C=C/[C@H](O[C@@H]2O[C@H](C)[C@@H](O)[C@H](N)[C@@H]2O)C[C@@H]2O[C@](O)(C[C@@H](O)C[C@@H](O)[C@H](O)CC[C@@H](O)C[C@@H](O)CC(=O)O[C@H]1C)C[C@H](O)[C@H]2C(=O)O` [amphotericin B], the hemolysis result in the data set with rat red blood cells is given as “more than 90%”. Further, the MIC in the data set on Stachybotrys chartarum is given as more than 54.0 µM. For the compound `N=C(N)NCCC[C@H](NC(=O)[C@H](CCCNC(=N)N)NC(=O)[C@H](CCCNC(=N)N)NC(=O)[C@H](CCC(N)=O)NC(=O)[C@H](CCCNC(=N)N)NC(=O)[C@H](CCCNC(=N)N)NC(=O)[C@H](CCCCN)NC(=O)[C@H](CCCCN)NC(=O)[C@H](CCCNC(=N)N)NC(=O)CNC(=O)[C@H](Cc1ccc(O)cc1)NC(=O)CNC(=O)CNC(=O)CN)C(N)=O` [G3TAT], the “MIC against Candida albicans” value against Candida albicans was determined as 289.0 µM (≈ 500 µg/mL). In addition, in the data set with Bacillus subtilis (setting [1]), the MIC is reported as 290.0 µM (≈ 502 µg/mL). As to `OC(Cn1cncn1)(Cn1cncn1)c1ccc(F)cc1F` [fluconazole], in the data set on Stachybotrys chartarum (Stachybotrys chartarum), the MIC is more than 817 µM.
